Laboratory results from PubChem BioAssay AID248 (DTP/NCI, 2004).
Values joined by “and” are separate entries in the source; they are usually repeats but may differ in a detail not shown here. Equal values may be shown once. Inconclusive results and toxic doses are left out. No stated cut-off is given here; in the data, active means T/C of 150% or more; inactive means T/C below 125%.

Tested on: L1210 leukemia ip in BDF1 mice, survival T/C
Assay: NCI In Vivo Anticancer Drug Screen. Data for tumor model L1210 Leukemia (intraperitoneal) in B6D2F1 (BDF1) mice
Settings: endpoint: mean survival time, higher = longer survival
Procedure, shortened: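 Transplantable tumor model; survival measured in treated vs vehicle control mice. Value = treated/control.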

[1] = dose: 100.0 mg/kg/injection, schedule: Q04DX003 (ip), vehicle: saline
[2] = dose: 200.0 mg/kg/injection, schedule: Q04DX003 (ip), vehicle: saline
[3] = dose: 400.0 mg/kg/injection, schedule: Q04DX003 (ip), vehicle: saline
[4] = dose: 50.0 mg/kg/injection, schedule: Q01DX001 (ip), vehicle: saline
[5] = dose: 100.0 mg/kg/injection, schedule: Q01DX001 (ip), vehicle: saline
[6] = dose: 200.0 mg/kg/injection, schedule: Q01DX001 (ip), vehicle: saline
[7] = dose: 400.0 mg/kg/injection, schedule: Q01DX001 (ip), vehicle: saline
[8] = dose: 12.5 mg/kg/injection, schedule: Q01DX009 (ip), vehicle: saline
[9] = dose: 25.0 mg/kg/injection, schedule: Q01DX009 (ip), vehicle: saline
[10] = dose: 100.0 mg/kg/injection, schedule: Q04DX002 (ip), vehicle: Klucel (hydroxypropylcellulose) (HPC)
[11] = dose: 200.0 mg/kg/injection, schedule: Q04DX002 (ip), vehicle: Klucel (hydroxypropylcellulose) (HPC)
[12] = dose: 400.0 mg/kg/injection, schedule: Q04DX002 (ip), vehicle: Klucel (hydroxypropylcellulose) (HPC)
[13] = dose: 100.0 mg/kg/injection, schedule: Q01DX009 (ip), vehicle: Klucel (hydroxypropylcellulose) (HPC)
[14] = dose: 100.0 mg/kg/injection, schedule: Q04DX003 (ip), vehicle: Klucel (hydroxypropylcellulose) (HPC)
[15] = dose: 200.0 mg/kg/injection, schedule: Q01DX009 (ip), vehicle: Klucel (hydroxypropylcellulose) (HPC)
[16] = dose: 200.0 mg/kg/injection, schedule: Q04DX003 (ip), vehicle: Klucel (hydroxypropylcellulose) (HPC)
[17] = dose: 400.0 mg/kg/injection, schedule: Q04DX003 (ip), vehicle: Klucel (hydroxypropylcellulose) (HPC)
[18] = dose: 400.0 mg/kg/injection, schedule: Q01DX009 (ip), vehicle: Klucel (hydroxypropylcellulose) (HPC)
[19] = dose: 100.0 mg/kg/injection, schedule: Q04DX003 (ip), vehicle: saline with Tween-80
[20] = dose: 100.0 mg/kg/injection, schedule: Q01DX009 (ip), vehicle: saline with Tween-80
[21] = dose: 200.0 mg/kg/injection, schedule: Q01DX009 (ip), vehicle: saline with Tween-80
[22] = dose: 200.0 mg/kg/injection, schedule: Q04DX003 (ip), vehicle: saline with Tween-80
[23] = dose: 400.0 mg/kg/injection, schedule: Q04DX003 (ip), vehicle: saline with Tween-80

Measured: T/C

CN(C)C(=O)NN1CCCCCC1
inactive: [1] 96 % of control | [2] 96 % of control | [3] 100 % of control

CCCC(C(=O)O)C(O)(CC(=O)O)C(=O)O (centres undefined)
inactive: [1] 101 % of control | [2] 101 % of control | [3] 95 % of control

O=C1Cc2ccccc2C(=O)N1Nc1ccccc1
inactive: dose: 22.0 mg/kg/injection, schedule: Q01DX001 (ip), vehicle: saline 96 % of control | dose: 33.0 mg/kg/injection, schedule: Q01DX001 (ip), vehicle: saline 91 % of control | [4] 93 % of control and 101 % of control | dose: 75.0 mg/kg/injection, schedule: Q01DX001 (ip), vehicle: saline 95 % of control | [5] 101 % of control | [6] 95 % of control | [7] 95 % of control

O=C1CCCC2C(=O)CCCC12 (centres undefined)
inactive: dose: 100.0 mg/kg/injection, schedule: Q## X003 (ip), vehicle: saline 102 % of control | dose: 200.0 mg/kg/injection, schedule: Q## X003 (ip), vehicle: saline 98 % of control | dose: 400.0 mg/kg/injection, schedule: Q## X003 (ip), vehicle: saline 101 % of control

CN(C)CCCN1Cc2ccccc2C1
inactive: dose: 44.0 mg/kg/injection, schedule: Q01DX Z (ip), vehicle: saline 96 % of control | dose: 66.0 mg/kg/injection, schedule: Q01DX Z (ip), vehicle: saline 100 % of control | dose: 100.0 mg/kg/injection, schedule: Q01DX Z (ip), vehicle: saline 102 % of control

O=[N+]([O-])c1ccc(/C=N/c2nccs2)o1
inactive: dose: 1.56 mg/kg/injection, schedule: Q01DX009 (ip), vehicle: saline 88 % of control | dose: 3.12 mg/kg/injection, schedule: Q01DX009 (ip), vehicle: saline 90 % of control | dose: 6.25 mg/kg/injection, schedule: Q01DX009 (ip), vehicle: saline 93 % of control | [8] 103 % of control | [9] 93 % of control | dose: 25.0 mg/kg/injection, schedule: Q04DX003 (ip), vehicle: saline 97 % of control | dose: 50.0 mg/kg/injection, schedule: Q04DX003 (ip), vehicle: saline 116 % of control | [1] 88 % of control and 91 % of control

Cn1cc(C(C)(C(=O)O)c2cn(C)c3ccccc23)c2ccccc21
inactive: [5] 104 % of control | [6] 102 % of control | [7] 102 % of control

NC(=O)c1c(F)c(F)c(N)c(F)c1F
inactive: [10] 96 % of control | [11] 93 % of control | [12] 118 % of control

CCN(CC)C(=O)C1(C)CCCC2(C)c3cc(OC(C)=O)ccc3CCC12 (centres undefined)
inactive: [13] 92 % of control | [14] 108 % of control | [15] 87 % of control | [16] 100 % of control | [17] 100 % of control

CCOc1nc(C)cc(C(=O)O)c1C#N
inactive: dose: 75.0 mg/kg/injection, schedule: Q01DX001 (ip), vehicle: other 95 % of control | dose: 150.0 mg/kg/injection, schedule: Q01DX001 (ip), vehicle: other 100 % of control | dose: 300.0 mg/kg/injection, schedule: Q01DX001 (ip), vehicle: other 103 % of control

COc1ccc2c(O)c(Oc3ccccc3)c(=O)oc2c1
inactive: [1] 87 % of control | [2] 97 % of control

CC(=O)CC(=O)NCc1ccncc1
inactive: dose: 100.0 mg/kg/injection, schedule: Q01DX009 (ip), vehicle: saline 97 % of control | [1] 100 % of control | dose: 200.0 mg/kg/injection, schedule: Q01DX009 (ip), vehicle: saline 105 % of control | [2] 102 % of control | dose: 400.0 mg/kg/injection, schedule: Q01DX009 (ip), vehicle: saline 95 % of control | [3] 97 % of control

CCOC(=O)CCc1c(C(=O)OCC)[nH]c(C)c1CC(=O)OC
inactive: [14] 98 % of control | [16] 101 % of control | [17] 101 % of control

COc1ccccc1NC(=O)c1ccc(Cl)cc1Cl
inactive: [13] 98 % of control | [14] 100 % of control | [15] 93 % of control | [16] 96 % of control | [18] 93 % of control | [17] 97 % of control

CCOc1c(Cl)cc(Cl)cc1C(c1ccc(Cl)cc1S(=O)(=O)O)c1cc(Cl)cc(Cl)c1OCC
inactive: [19] 89 % of control

CC(C)(C)c1cc(CN2CCCC(O)C2)c(O)c(-c2ccccc2)c1 (centres undefined)
inactive: [1] 98 % of control | [2] 98 % of control

O=C(Oc1ccc(Cl)cc1Cl)c1ccccc1
inactive: [20] 110 % of control | [19] 98 % of control | [21] 110 % of control | [22] 96 % of control | dose: 400.0 mg/kg/injection, schedule: Q01DX009 (ip), vehicle: saline with Tween-80 113 % of control | [23] 101 % of control

O=C(O)c1ccc(CO)o1
inactive: dose: 50.0 mg/kg/injection, schedule: Q01DX009 (ip), vehicle: Klucel (hydroxypropylcellulose) (HPC) 107 % of control | [13] 93 % of control

CCOC(=O)c1nc(NC)sc1N
inactive: [8] 98 % of control | [9] 104 % of control | dose: 50.0 mg/kg/injection, schedule: Q01DX009 (ip), vehicle: saline 97 % of control and 98 % of control | [1] 102 % of control | [2] 100 % of control

O=C(CCCCCCC(=O)C[n+]1ccccc1Br)C[n+]1ccccc1Br
inactive: dose: 1.4 mg/kg/injection, schedule: Q04DX003 (ip), vehicle: saline 105 % of control | dose: 2.8 mg/kg/injection, schedule: Q04DX003 (ip), vehicle: saline 100 % of control | dose: 5.6 mg/kg/injection, schedule: Q04DX003 (ip), vehicle: saline 97 % of control

COC(=O)C(C)NC(=O)CNC(=O)CNC(=O)OCc1ccccc1 (centres undefined)
inactive: [14] 97 % of control | [16] 100 % of control | [17] 95 % of control

CCc1ccc(NC(=O)Nc2cccc(Cl)c2)cc1
inactive: [13] 92 % of control | [14] 102 % of control | [15] 89 % of control | [16] 102 % of control | [18] 99 % of control | [17] 98 % of control

CN(C)N(P(N)(Cl)(c1ccccc1)c1ccccc1)P(N)(Cl)(c1ccccc1)c1ccccc1
inactive: dose: 5.0 mg/kg/injection, schedule: Q01DX001 (ip), vehicle: steriod suspending solution 100 % of control | dose: 10.0 mg/kg/injection, schedule: Q01DX001 (ip), vehicle: steriod suspending solution 105 % of control | dose: 20.0 mg/kg/injection, schedule: Q01DX001 (ip), vehicle: steriod suspending solution 97 % of control | dose: 40.0 mg/kg/injection, schedule: Q01DX001 (ip), vehicle: steriod suspending solution 103 % of control | dose: 80.0 mg/kg/injection, schedule: Q01DX001 (ip), vehicle: steriod suspending solution 94 % of control

CCCCCCCCCCN1C(=O)C(Cl)=C(Cl)C1=O
inactive: dose: 25.0 mg/kg/injection, schedule: Q04DX003 (ip), vehicle: saline with Tween-80 103 % of control | dose: 50.0 mg/kg/injection, schedule: Q04DX003 (ip), vehicle: saline with Tween-80 94 % of control

CC(=O)NC1CCC(C(C)(C)C)CC1 (centres undefined)
inactive: [20] 102 % of control | [10] 93 % of control | [21] 108 % of control | [11] 90 % of control | [12] 103 % of control

c1ccc(CNc2nn[nH]n2)cc1
inactive: [19] 96 % of control | [22] 96 % of control | [23] 94 % of control

O=S(=O)(OCCCl)c1ccc(Cl)c(S(=O)(=O)OCCCl)c1
inactive: [19] 97 % of control

FC1(F)SC2C3CC(C4CCC=C43)C2C1(F)F (centres undefined)
inactive: dose: 0.78 mg/kg/injection, schedule: Q01DX009 (ip), vehicle: Klucel (hydroxypropylcellulose) (HPC) 96 % of control | dose: 1.56 mg/kg/injection, schedule: Q01DX009 (ip), vehicle: Klucel (hydroxypropylcellulose) (HPC) 93 % of control | dose: 1.56 mg/kg/injection, schedule: Q04DX003 (ip), vehicle: Klucel (hydroxypropylcellulose) (HPC) 102 % of control | dose: 3.13 mg/kg/injection, schedule: Q04DX003 (ip), vehicle: Klucel (hydroxypropylcellulose) (HPC) 100 % of control

CC(=O)NC(C)CC(C)C (centres undefined)
inactive: [1] 113 % of control | [2] 103 % of control

NNC(=O)CC(=O)NN
inactive: [4] 97 % of control | [5] 106 % of control | [1] 110 % of control | [6] 97 % of control | [2] 111 % of control | [7] 97 % of control
